From ChEMBL document CHEMBL1126530, “A concise enantioselective synthesis of rans-olefin dipeptide isosteres” (Bioorg Med Chem Lett, 1993)

Biological target: Human immunodeficiency virus type 1 protease (Human immunodeficiency virus 1, UniProt Q72874)
Assay: Inhibitory constant against HIV-1 protease

Compound | Ki
COC(=O)[C@@H](NC(=O)[C@@H](C)/C=C/[C@@H](Cc1ccccc1)C(=O)N[C@H](C(=O)OC)C(C)C)C(C)C | > 67 µM
COC(=O)[C@@H](NC(=O)[C@@H](/C=C/[C@H](C)C(=O)N[C@H](C(=O)OC)C(C)C)C(C)C)C(C)C | > 67 µM
COC(=O)[C@@H](NC(=O)[C@@H](/C=C/[C@@H](C(=O)N[C@H](C(=O)OC)C(C)C)C(C)C)Cc1ccccc1)C(C)C | 5 µM
